US20260250273A1, “CRYSTAL FORM OF COMPOUND, AND PHARMACEUTICAL COMPOSITION AND USE THEREOF” (SHENZHEN KEYE LIFE TECHNOLOGIES CO., LTD, priority 2023, published 2026)

What was measured:
[1] = Solid-form stability under long-term and accelerated conditions (HPLC purity, XRPD); assay type: physicochemical; details: 10 d; for Physical and chemical stability: 25 °C/60% RH and 40 °C/75% RH; for Purity (Area %): HPLC, initial purity 99.55 (form A), 99.84 (form C)
[2] = Hygroscopicity evaluation (DVS test, XRPD after DVS); assay type: physicochemical; details: for Sample weight change at 80% RH (%): DVS, 25 °C; for Whether crystal form changes before and after test: XRPD before and after DVS test; for Hygroscopicity: weight gain when humidity rises to 80% RH at 25 °C, Chinese Pharmacopoeia (2020 Edition)
[3] = Heating experiment and variable temperature XRPD (VT-XRPD); assay type: physicochemical; details: heated to 120 °C
[4] = Suspension competition experiment between anhydrous crystal form A and anhydrous crystal form C (XRPD); assay type: physicochemical; details: for Relative stability of crystal forms concluded from suspension competition: room temperature to 50 °C
[5] = High-temperature stability (HPLC purity, XRPD); assay type: physicochemical; details: 60 °C, 10 d; for Purity (Area %): HPLC, initial purity 99.55 (form A), 99.84 (form C)
[6] = Crystal form conversion of wet samples on air-drying at room temperature (XRPD); assay type: physicochemical; details: for Crystal form after air-drying: air-dried at room temperature for 1 d; for Stability of the crystal form: crystalline wet solid
[7] = target: T1, DHX33 (Homo sapiens, UniProt Q9H6R0); details: background statement, no data; cited from earlier work
T1 sequence (Q9H6R0 1-707): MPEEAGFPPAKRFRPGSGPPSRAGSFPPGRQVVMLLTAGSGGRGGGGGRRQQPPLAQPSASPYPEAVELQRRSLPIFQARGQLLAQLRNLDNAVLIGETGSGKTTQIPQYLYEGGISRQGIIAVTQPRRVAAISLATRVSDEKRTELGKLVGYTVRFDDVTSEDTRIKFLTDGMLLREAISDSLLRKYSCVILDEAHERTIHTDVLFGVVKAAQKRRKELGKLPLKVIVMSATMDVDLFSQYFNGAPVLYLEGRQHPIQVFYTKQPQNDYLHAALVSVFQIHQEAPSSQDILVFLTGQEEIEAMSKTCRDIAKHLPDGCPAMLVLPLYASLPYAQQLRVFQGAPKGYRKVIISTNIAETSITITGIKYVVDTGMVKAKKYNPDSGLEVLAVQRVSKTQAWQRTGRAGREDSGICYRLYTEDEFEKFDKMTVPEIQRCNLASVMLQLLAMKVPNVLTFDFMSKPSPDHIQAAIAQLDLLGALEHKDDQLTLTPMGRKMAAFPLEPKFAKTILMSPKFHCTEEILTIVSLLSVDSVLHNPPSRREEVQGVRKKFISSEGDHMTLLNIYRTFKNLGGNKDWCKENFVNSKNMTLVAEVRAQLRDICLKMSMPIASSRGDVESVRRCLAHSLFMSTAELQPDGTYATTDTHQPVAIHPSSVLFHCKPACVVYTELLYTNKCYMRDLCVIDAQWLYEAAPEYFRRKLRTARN

[8] = listed as anhydrous crystal form A
[9] = listed as anhydrous crystal form C

SMILES | Physical and chemical stability [1] | Crystal form Change ([1]; 25 °C/60% RH) | Purity (Area %) ([1]; 25 °C/60% RH) | Crystal form Change ([1]; 40 °C/75% RH) | Purity (Area %) ([1]; 40 °C/75% RH) | Sample weight change at 80% RH (%) [2] [%] | Whether crystal form changes before and after test [2] | Hygroscopicity [2] | Relative stability of crystal forms concluded from suspension competition [4] | Crystal form Change [5] | Physical and chemical stability [5] | Purity (Area %) [5] [Area %] | Crystal form after air-drying [6] | Stability of the crystal form [6] | further results
COc1ccc2nc(NC(=O)c3cc(C)n(-c4sc(C)cc4C#N)c3C)[nH]c2c1 (single isomer, unassigned) [Anhydrous crystal form A, 1-(3-cyano-5-methylthiophen-2-yl)-N-(6-methoxy-1H-benzo[d]imidazol-2-yl)-2,5-dimethyl-1H-pyrrole-3-carboxamide] | good physical and chemical stability | No | 99.67 | No | 99.60 | 3.24 | No | slight hygroscopicity | more thermodynamically stable anhydrous form | No | good physical and chemical stability | 99.63 | – | – | Sample weight change at 80% RH (%) [2, 8]: 3.24%; Whether crystal form changes before and after test [2, 8]: no changes in crystal form; Crystal form in VT-XRPD analysis ([3]; XRPD in situ, then cooled to room temperature): crystal form remained unchanged; Crystal form in heating experiment ([3]; maintained for 5 min, cooled to room temperature): crystal form remained unchanged
COc1ccc2nc(NC(=O)c3cc(C)n(-c4sc(C)cc4C#N)c3C)[nH]c2c1 [crystal form B, 1-(3-cyano-5-methylthiophen-2-yl)-N-(6-methoxy-1H-benzo[d]imidazol-2-yl)-2,5-dimethyl-1H-pyrrole-3-carboxamide] | – | – | – | – | – | – | – | – | relatively more stable in the case of the wet sample | – | – | – | converted into the anhydrous crystal form A | metastable form | –
COc1ccc2nc(NC(=O)c3cc(C)n(-c4sc(C)cc4C#N)c3C)[nH]c2c1 | – | – | – | – | – | – | – | – | – | – | – | – | – | – | Competition for 1 d (XPRD) ([4]; EtOH, 50 °C, saturated solution of Compound (1), resulting crystal form): crystal form B; Competition for 2 d (XPRD) ([4]; IPAc, RT, saturated solution of Compound (1), resulting crystal form): crystal form B
COc1ccc2nc(NC(=O)c3cc(C)n(-c4sc(C)cc4C#N)c3C)[nH]c2c1 [compound of Formula (1), 1-(3-cyano-5-methylthiophen-2-yl)-N-(6-methoxy-1H-benzo[d]imidazol-2-yl)-2,5-dimethyl-1H-pyrrole-3-carboxamide] | – | – | – | – | – | – | – | – | – | – | – | – | – | – | Inhibiting the RNA helicase activity of DHX33 [7]: capable of inhibiting the RNA helicase activity of DHX33
COc1ccc2nc(NC(=O)c3cc(C)n(-c4sc(C)cc4C#N)c3C)[nH]c2c1 (single isomer, unassigned) [Anhydrous crystal form C, 1-(3-cyano-5-methylthiophen-2-yl)-N-(6-methoxy-1H-benzo[d]imidazol-2-yl)-2,5-dimethyl-1H-pyrrole-3-carboxamide] | good physical and chemical stability | No | 99.87 | No | 99.90 | 3.71 | No | slight hygroscopicity | – | No | good physical and chemical stability | 99.86 | converted into the anhydrous crystal form A | – | Sample weight change at 80% RH (%) [2, 9]: 3.71%; Whether crystal form changes before and after test [2, 9]: no changes in crystal form
COc1ccc2nc(NC(=O)c3cc(C)n(-c4sc(C)cc4C#N)c3C)[nH]c2c1 [crystal form D, 1-(3-cyano-5-methylthiophen-2-yl)-N-(6-methoxy-1H-benzo[d]imidazol-2-yl)-2,5-dimethyl-1H-pyrrole-3-carboxamide] | – | – | – | – | – | – | – | – | – | – | – | – | converted into the anhydrous crystal form C | metastable form | –
